As a reminder, the IC50 is the concentration that gives 50% inhibition.

The test system of data set [1] is primary microglia. Nature of the data set: Primary microglia induced by IL-4 and IL-13: polarization markers and signaling (western blot, immunofluorescence). A general note: Immunoblotting shows a protein as a band on a membrane.
Method: Tissues and cells were harvested and lysed with RIPA buffer. The protein concentration was determined using a BCA kit. Samples were separated on 10% SDS‐PAGE gels and blotted onto nitrocellulose membranes (Millipore).The membranes were incubated with primary antibodies at 4 °C overnight, washed three times with TBST, and then incubated with HRP‐conjugated anti‐mouse IgG or anti‐rabbit IgG diluted in TBST containing 1% non‐fat milk at room temperature for 1 h. After final washing with TBST, the membranes were developed by using ECL.
The subject of data set [2] is glioma induced by U251‐LUC cells. Nature of the data set: Intracranial orthotopic glioma model induced by U251-LUC cells.
Data set [3] can be described thus: Central inhibitory effect. The conditions noted are these: clomethiazole: at a dose that inhibited CYP2E1.
Data set [4] has as its target CYP2E1 (Homo sapiens, UniProt P05181). In words: In vitro inhibition of CYP2E1 (chlorzoxazone as substrate). It counts as biochemical. The arrangement: A 100 µL microsomal incubation system; from tissue. The following applies: chlorzoxazone 62.5 µM; read-out: IC50 of inhibition on CYP2E1. Here is the method: Chlorzoxazone with a concentration of 62.5 µM and inhibitors with different gradient concentrations were selected to plot the inhibition of chlorzoxazone and to calculate the IC50 of the inhibitor. A Lineweaver–Burk curve was used to determine the mechanism and calculate the K i of inhibitors of CYP2E1.
A 100 µL microsomal incubation system^[ [44] ^] contained probe drugs for each CYP with different series of concentrations, Q11, phosphate buffer, EDTA, magnesium chloride, and substrates (phenacetin for CYP1A2, coumarin for CYP2A6, bupropion for CYP2B6, paclitaxel for CYP2C8, tolbutamide for CYP2C9, omeprazole for CYP2C19, dextromethorphan for CYP2D6, chlorzoxazone for CYP2E1, midazolam for CYP3A4/5). HPLC‐UV and HPLC‐FLD were used to measure the number of metabolites.

The mark [5] stands for this setting: endpoint day 36 after transplantation.

Sequence of CYP2E1 (P05181 whole entry): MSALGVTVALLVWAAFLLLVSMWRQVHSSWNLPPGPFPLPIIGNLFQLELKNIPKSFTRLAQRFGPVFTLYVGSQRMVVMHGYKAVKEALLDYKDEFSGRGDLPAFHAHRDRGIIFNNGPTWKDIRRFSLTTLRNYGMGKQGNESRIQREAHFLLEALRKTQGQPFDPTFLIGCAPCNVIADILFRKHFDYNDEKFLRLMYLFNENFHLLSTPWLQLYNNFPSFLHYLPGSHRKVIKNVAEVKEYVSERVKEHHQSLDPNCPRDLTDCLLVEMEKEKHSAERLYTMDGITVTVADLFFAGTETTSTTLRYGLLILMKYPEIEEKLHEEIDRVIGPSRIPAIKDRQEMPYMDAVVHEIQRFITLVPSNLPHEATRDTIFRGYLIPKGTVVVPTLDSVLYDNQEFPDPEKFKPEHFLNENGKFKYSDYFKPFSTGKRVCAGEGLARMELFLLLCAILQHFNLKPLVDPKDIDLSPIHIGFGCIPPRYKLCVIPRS

As to `CN(CCOc1ccc(CC2SC(=O)NC2=O)cc1)c1ccccn1` (centres unmarked) [Rosiglitazone, reference compound], the “effect on the action of Q11 (PPAR-γ dependence)” value in data set [1] (agonist of PPAR-γ added to Q11) was “completely blocked the effect of Q11”.

For the compound `O=C(Nc1ccccc1)c1cc([N+](=O)[O-])ccc1Cl` [GW9662, reference compound], in data set [1] (antagonist of PPARγ, blocked the ability of rosiglitazone), the “PPAR-γ expression in presence of rosiglitazone” value is given as “downregulated”.

`Cn1nnc2c(C(N)=O)ncn2c1=O` [TMZ, temozolomide, reference compound]: the “bioluminescence in tumor sites” value in data set [2] (day 14 after transplantation, Q11 at 10 and 30 mg kg^−1) was “lesser bioluminescence”. For the same compound, in data set [2] (setting [5]), the brain weight entry is “markedly suppressed”, the tumor diameter entry is on record as “markedly suppressed” and the tumor volume entry was “markedly suppressed”.

Take `Cc1ncsc1CCCl` [clomethiazole, reference compound]: in data set [3], the central inhibitory effect result is given as “significant central inhibitory effect”. The IC50 in data set [4] was 39.3 µM.

(Values after paper PMC10427391, “Identification of Cytochrome P450 2E1 as a Novel Target in Glioma and Development of Its Inhibitor as an Anti‐Tumor Agent” (Advanced Science, 2023).)
